The source of these data is ChEMBL document CHEMBL4350980, “Synthesis and structure-activity relationships of small-molecular di-basic esters, amides and carbamates as flaviviral protease inhibitors” (Eur J Med Chem, 2019).

pIC50: −log10 of the molar value. The source made the active and inactive calls. The calls are words filed in the database; no cut-off is given here.

Data set [1] addresses Genome polyprotein (dengue virus type 2) (UniProt P29990). Put plainly: Inhibition of dengue virus serotype 2 His-tagged NS2B cofactor domain-NS3 protease expressed in Escherichia coli at 50 uM using 2-Abz-Nle-Lys-Arg-Arg-Ser-(3-NO2)-Tyr-NH2 as substrate preincubated with enzyme for 15 mins followed by substrate addition measured for every 1 sec for 15 mins by fluorescence plate reader based HPLC analysis relative to control.

Data set [2] concerns the target Genome polyprotein (West Nile virus) (UniProt P06935). Nature of the data set: Inhibition of West Nile virus His-tagged NS2B cofactor domain-NS3 protease expressed in Escherichia coli at 50 uM using 2-Abz-Gly-Leu-Lys-Arg-Gly-Gly-(3-NO2)-Tyr-NH2 as substrate preincubated with enzyme for 15 mins followed by substrate addition measured for every 1 sec for 15 mins by fluorescence microplate reader based HPLC analysis relative to control.

Data set [3] deals with T1, Prothrombin (Homo sapiens, UniProt P00734). Nature of the data set: Inhibition of thrombin (unknown origin) at 25 uM using Boc-Val-Pro-Arg-AMC as substrate preincubated with enzyme for 15 mins followed by addition of substrate by fluorescence plate reader analysis relative to control.
Data set [4] has as its target T2, Trypsin (Homo sapiens, UniProt P07477+P07478+P35030). Put plainly: Inhibition of trypsin (unknown origin) at 50 uM using Boc-Val-Pro-Arg-AMC as substrate preincubated with enzyme for 15 mins followed by addition of substrate by fluorescence plate reader analysis relative to control. In kind it is protein assay.
Data set [5] has as its target Genome polyprotein (dengue virus type 2, UniProt P29990). Nature of the data set: Inhibition of dengue virus serotype 2 His-tagged NS2B cofactor domain-NS3 protease expressed in Escherichia coli using 2-Abz-Nle-Lys-Arg-Arg-Ser-(3-NO2)-Tyr-NH2 as substrate preincubated with enzyme for 15 mins followed by substrate addition measured for every 1 sec for 15 mins by fluorescence plate reader based HPLC analysis.

Data set [6] concerns the target T1, Prothrombin. Nature of the data set: Inhibition of thrombin (unknown origin) using Boc-Val-Pro-Arg-AMC as substrate preincubated with enzyme for 15 mins followed by addition of substrate by fluorescence plate reader analysis.
For data set [7], the target named is T2, Trypsin. Put plainly: Inhibition of trypsin (unknown origin) using Boc-Val-Pro-Arg-AMC as substrate preincubated with enzyme for 15 mins followed by addition of substrate by fluorescence plate reader analysis. It counts as protein assay.
The target of data set [8] is Genome polyprotein (dengue virus type 2) (UniProt P29990). Nature of the data set: Time-dependent inhibition of dengue virus serotype 2 His-tagged NS2B cofactor domain-NS3 protease expressed in Escherichia coli at 50 uM using 2-Abz-Nle-Lys-Arg-Arg-Ser-(3-NO2)-Tyr-NH2 as substrate preincubated with enzyme for 20 to 40 mins followed by substrate addition measured for every 1 sec for 15 mins by fluorescence plate reader based HPLC analysis.

Data set [9] has the same target. Nature of the data set: Inhibition of dengue virus serotype 2 His-tagged NS2B catalytic domain-NS3 protease expressed in Escherichia coli at 100 uM using 2-Abz-Nle-Lys-Arg-Arg-Ser-(3-NO2)-Tyr-NH2 as substrate preincubated with enzyme for 1 hr followed by substrate addition measured for every 1 sec for 15 mins by fluorescence plate reader based HPLC analysis relative to control.

Data set [10] shares this target. Nature of the data set: Reversible covalent binding affinity at dengue virus serotype 2 His-tagged NS2B cofactor domain-NS3 protease expressed in Escherichia coli assessed as acyl-enzyme adduct formation at 100 uM incubated for 5 to 30 mins by ESI-MS analysis.
Data set [11] has the same target. Put plainly: Reversible covalent binding affinity at dengue virus serotype 2 His-tagged NS2B cofactor domain-NS3 protease expressed in Escherichia coli assessed as acyl-enzyme adduct formation at 100 uM incubated for 20 hrs by ESI-MS analysis.
Data set [12] is described as follows: Stability of compound in TRIS buffer assessed as half life at pH 9. It counts as physicochemical.
Data set [13] is described as follows: Stability of compound in phosphate buffer assessed as half life at pH 11. It counts as physicochemical.
Data set [14] in a line: Stability of compound in phosphate buffer at pH 9. It counts as physicochemical.
Data set [15] can be described thus: Stability of compound in TRIS buffer at pH 7.5. It counts as physicochemical.
Data set [16] addresses Genome polyprotein (dengue virus type 2) (UniProt P29990). Nature of the data set: Reversible covalent inhibition of dengue virus serotype 2 His-tagged NS2B catalytic domain-NS3 protease expressed in Escherichia coli using 2-Abz-Nle-Lys-Arg-Arg-Ser-(3-NO2)-Tyr-NH2 as substrate preincubated initially at 100 uM with enzyme for 1 hr followed by dilution with assay buffer to achieve compound concentration of 3.33 uM prior to substrate addition measured immediately after dilution by fluorescence plate reader based HPLC analysis.

Data set [17] shares this target. Nature of the data set: Reversible covalent inhibition of dengue virus serotype 2 His-tagged NS2B catalytic domain-NS3 protease expressed in Escherichia coli using 2-Abz-Nle-Lys-Arg-Arg-Ser-(3-NO2)-Tyr-NH2 as substrate preincubated initially at 100 uM with enzyme for 1 hr followed by dilution with assay buffer to achieve compound concentration of 3.33 uM prior to substrate addition measured after dilution over time by fluorescence plate reader based HPLC analysis.

Data set [18] shares this target. Put plainly: Reversible covalent inhibition of dengue virus serotype 2 His-tagged NS2B catalytic domain-NS3 protease expressed in Escherichia coli at 100 uM using 2-Abz-Nle-Lys-Arg-Arg-Ser-(3-NO2)-Tyr-NH2 as substrate preincubated with enzyme for 1 hr followed by dilution prior to substrate addition measured at 120 mins after dilution by fluorescence plate reader based HPLC analysis.

The test system of data set [19] is dengue virus type 2. Nature of the data set: Reversible covalent binding affinity at dengue virus serotype 2 His-tagged NS2B cofactor domain-NS3 protease S135A mutant expressed in Escherichia coli assessed as acyl-enzyme adduct formation at 100 uM incubated for 24 hrs by ESI-MS analysis.

Genome polyprotein (West Nile virus), sequence (P06935 whole entry, the tested form may be a part): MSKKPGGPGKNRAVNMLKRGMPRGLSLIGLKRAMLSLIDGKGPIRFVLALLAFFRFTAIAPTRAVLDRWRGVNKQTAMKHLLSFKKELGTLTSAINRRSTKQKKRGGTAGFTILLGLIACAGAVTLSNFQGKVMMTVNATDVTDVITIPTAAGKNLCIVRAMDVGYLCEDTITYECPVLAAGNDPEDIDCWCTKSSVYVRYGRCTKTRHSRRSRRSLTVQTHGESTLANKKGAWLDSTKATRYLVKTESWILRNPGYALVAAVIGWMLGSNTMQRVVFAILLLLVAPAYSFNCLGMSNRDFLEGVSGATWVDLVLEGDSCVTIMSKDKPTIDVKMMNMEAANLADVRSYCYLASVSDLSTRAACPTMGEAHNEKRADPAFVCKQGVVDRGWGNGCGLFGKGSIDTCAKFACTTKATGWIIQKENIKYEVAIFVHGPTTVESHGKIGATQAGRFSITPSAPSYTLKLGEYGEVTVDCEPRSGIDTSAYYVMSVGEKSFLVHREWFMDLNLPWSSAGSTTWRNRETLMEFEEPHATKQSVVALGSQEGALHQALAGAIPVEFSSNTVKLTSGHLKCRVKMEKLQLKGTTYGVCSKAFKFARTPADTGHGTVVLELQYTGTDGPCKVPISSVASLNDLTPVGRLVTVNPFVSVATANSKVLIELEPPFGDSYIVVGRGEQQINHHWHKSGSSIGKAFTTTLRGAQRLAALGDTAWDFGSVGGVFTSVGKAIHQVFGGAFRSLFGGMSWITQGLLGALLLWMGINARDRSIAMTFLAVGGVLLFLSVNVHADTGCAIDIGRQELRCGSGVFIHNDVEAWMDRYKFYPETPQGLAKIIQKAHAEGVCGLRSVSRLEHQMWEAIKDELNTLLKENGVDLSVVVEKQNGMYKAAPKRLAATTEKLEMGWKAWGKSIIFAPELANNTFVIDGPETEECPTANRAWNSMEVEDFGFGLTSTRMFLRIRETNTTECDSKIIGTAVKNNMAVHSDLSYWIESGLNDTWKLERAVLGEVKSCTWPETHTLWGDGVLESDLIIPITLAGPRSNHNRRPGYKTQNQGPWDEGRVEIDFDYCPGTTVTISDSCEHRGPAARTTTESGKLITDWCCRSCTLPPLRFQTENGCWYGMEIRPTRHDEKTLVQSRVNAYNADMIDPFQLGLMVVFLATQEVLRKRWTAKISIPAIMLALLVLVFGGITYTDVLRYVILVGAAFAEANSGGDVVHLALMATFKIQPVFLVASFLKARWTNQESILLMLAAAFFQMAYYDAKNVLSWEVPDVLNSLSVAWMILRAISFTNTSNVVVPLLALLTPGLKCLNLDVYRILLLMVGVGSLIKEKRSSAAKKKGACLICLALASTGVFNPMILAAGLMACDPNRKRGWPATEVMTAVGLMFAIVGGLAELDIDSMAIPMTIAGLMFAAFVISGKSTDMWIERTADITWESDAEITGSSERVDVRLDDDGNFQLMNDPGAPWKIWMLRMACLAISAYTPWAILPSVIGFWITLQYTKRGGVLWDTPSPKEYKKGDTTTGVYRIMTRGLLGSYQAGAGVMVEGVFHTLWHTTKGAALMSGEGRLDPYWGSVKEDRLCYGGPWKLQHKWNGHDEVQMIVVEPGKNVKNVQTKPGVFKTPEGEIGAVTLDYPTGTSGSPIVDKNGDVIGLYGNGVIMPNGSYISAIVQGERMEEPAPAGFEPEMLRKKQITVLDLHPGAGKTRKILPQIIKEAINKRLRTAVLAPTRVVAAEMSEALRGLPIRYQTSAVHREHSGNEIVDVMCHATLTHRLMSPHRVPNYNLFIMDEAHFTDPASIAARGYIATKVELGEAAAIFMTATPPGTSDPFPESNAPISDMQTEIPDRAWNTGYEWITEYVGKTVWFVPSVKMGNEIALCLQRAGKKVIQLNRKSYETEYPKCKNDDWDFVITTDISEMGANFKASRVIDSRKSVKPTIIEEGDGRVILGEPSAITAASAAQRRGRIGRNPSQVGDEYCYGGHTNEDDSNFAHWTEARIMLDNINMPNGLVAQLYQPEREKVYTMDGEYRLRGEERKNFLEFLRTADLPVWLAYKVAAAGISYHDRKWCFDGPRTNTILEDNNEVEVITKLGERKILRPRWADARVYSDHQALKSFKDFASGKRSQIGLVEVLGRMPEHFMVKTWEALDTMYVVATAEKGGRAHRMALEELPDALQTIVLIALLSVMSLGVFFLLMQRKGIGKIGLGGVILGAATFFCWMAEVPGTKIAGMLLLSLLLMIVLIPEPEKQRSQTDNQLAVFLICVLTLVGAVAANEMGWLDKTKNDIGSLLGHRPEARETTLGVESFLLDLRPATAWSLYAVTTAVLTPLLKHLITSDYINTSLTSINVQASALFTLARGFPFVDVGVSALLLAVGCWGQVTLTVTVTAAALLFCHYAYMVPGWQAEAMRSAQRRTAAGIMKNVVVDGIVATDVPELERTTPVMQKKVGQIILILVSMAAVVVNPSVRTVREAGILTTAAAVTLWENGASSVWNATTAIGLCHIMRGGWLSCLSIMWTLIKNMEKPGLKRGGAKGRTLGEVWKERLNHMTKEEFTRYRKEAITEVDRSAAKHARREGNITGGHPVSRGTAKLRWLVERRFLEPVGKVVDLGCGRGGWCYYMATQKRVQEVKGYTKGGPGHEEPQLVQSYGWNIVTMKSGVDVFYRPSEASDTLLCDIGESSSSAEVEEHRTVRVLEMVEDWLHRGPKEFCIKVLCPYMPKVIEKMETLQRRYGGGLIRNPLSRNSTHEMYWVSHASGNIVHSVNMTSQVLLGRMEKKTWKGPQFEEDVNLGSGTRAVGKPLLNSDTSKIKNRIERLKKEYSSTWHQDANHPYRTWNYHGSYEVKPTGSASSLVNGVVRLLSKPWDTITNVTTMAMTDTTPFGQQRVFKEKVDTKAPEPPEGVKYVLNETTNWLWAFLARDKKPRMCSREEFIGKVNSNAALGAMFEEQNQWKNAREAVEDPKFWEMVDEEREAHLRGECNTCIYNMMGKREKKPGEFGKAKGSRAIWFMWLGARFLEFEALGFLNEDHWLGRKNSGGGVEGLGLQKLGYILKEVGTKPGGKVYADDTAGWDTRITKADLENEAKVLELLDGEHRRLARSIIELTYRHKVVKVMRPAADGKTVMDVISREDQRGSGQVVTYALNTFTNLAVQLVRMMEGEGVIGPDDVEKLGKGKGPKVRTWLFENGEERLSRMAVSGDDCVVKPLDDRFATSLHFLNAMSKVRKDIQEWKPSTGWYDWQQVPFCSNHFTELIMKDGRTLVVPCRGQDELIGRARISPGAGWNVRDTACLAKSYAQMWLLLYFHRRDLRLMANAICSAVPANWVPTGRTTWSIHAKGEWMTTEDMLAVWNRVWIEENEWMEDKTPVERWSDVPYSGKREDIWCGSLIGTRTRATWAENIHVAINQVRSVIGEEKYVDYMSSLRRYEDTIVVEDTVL

On to `N=C(N)Nc1ccc(OC(=O)c2ccc(NC(=N)N)cc2)cc1`, for which the inhibition in [1] amounted to 98.1%; in data set [2], 29.8%; in [3], 99%; in data set [4], 100%; in [9], 100%. Further, the figures for the pIC50 in data set [5] and in data set [6] were 4.84 and 5.39, respectively. Further, in [7], the IC50 was 0.00135 µM. The TDI result in [8] was “Active”. Also, in data set [10], the outcome was Active. In addition, the outcome in [11] and in data set [19] was inactive. The half-life in [12] was found to be 16.8 min; in data set [13], 17.8 min. Also, the Stability result in data set [14] and in data set [15] was “Stable” each time. In data set [16], the inhibition result was “Active”. In addition, the inhibition result in data set [17] and in data set [18] was “inactive” in each case.

In general, inhibition refers to the change of the read-out against control, counted positive when it falls. A word on the pIC50: it is −log10 of the IC50, conventionally taken in molar units. Read a high pIC50 as a small IC50. The IC50 is the midpoint of a concentration-inhibition curve. A lower IC50 goes with greater potency. As a reminder, the half-life is the time in which the quantity being followed falls by half.
